Experimental findings from patent US6448270B1, “4-substituted piperidine analogs and their use as subtype selective NMDA receptor antagonists” (Warner-Lambert Company, priority 1995, dated 2002) are described below.

Where two headings read alike, the source gives them in different places.

Series [1] relates to maximal electroshock-induced seizures. The series can be described thus: Maximal electroshock-induced seizures (MES). Type of series: in vivo, mice. The conditions noted are these: for ED50: Mus musculus, mice, tonic hindlimb extensor response, corneal electrodes 50 mA; for activity against maximal electroshock (MES): statement in words, refers to Table 3. Here is the method: Maximal Electroshock-induced Seizures
Seizures were induced by application of current (50 mA, 60 pulses/sec, 0.8 sec pulse width, 1 sec duration, d.c.) through saline-coated corneal electrodes using a Ugo Basile ECT device (Model 7801). […] A tonic seizure was defined as a hindlimb extension in excess of 90 degrees from the plane of the body. Results were treated in a quantal manner.
(In general: Protection in the maximal electroshock model is a classic sign of anticonvulsant action.)

The target of a further series is NR1A/NR2A NMDA receptor (Rattus norvegicus, UniProt P35439+Q00959). The series is described as follows: Electrophysiological assay, cloned NMDA receptor subunits expressed in Xenopus oocytes (1A/2A). Type of series: cell-based. From the text:
(§1) Electrophysiological Assays at NMDA Receptor Subunits
(§2) cDNA clones encoding the NR1A, NR2A, NR2B, NR2C and NR2D rat NMDA receptor subtypes were provided by Dr. P. H. Seeburg (see, Moriyoshi et al., Nature (Lond.) 354:31-37 (1991); Kutsuwada et al., Nature (Lond.) 358:36-41 (1992) Monyer et al., Science (Washington, D.C.) 256:1217-1221 (1992); Ikeda et al., FEBS Lett. 313:34-38 (1992); Ishii et al., J. Biol. Chem. 268:2836-2843 (1993) for details of these clones or their mouse homologs). The clones were transformed into appropriate host bacteria and plasmid preparations were made with conventional DNA purification techniques. […]
(§3) Electrical recordings were made using a conventional two-electrode voltage clamp (Dagan TEV-200) over periods ranging between 3-21 days following injection. […] Inhibitory potency of the novel antagonists was assessed on responses elicited by fixed concentrations of glutamate and glycine, by measuring reductions in current induced by progressively increasing concentrations of antagonist. […]
(§4) in which Icontrol is the current evoked by agonists alone, pIC50=−log IC50, IC50 is the concentration of antagonist that produces half maximal inhibition, and n is the slope factor. […] For incomplete curves analysis by fitting was unreliable and IC50 values were calculated by simple regression over linear portions of the curves (Origin: Microcal Software).

The target in a further series is NR1A/NR2B NMDA receptor (Rattus norvegicus, UniProt P35439+Q00960). The series is described as follows: Electrophysiological assay, cloned NMDA receptor subunits expressed in Xenopus oocytes (1A/2B). Type of series: cell-based.
NR1A/NR2B NMDA receptor, sequence (Q00960 27-1482, other chains not shown): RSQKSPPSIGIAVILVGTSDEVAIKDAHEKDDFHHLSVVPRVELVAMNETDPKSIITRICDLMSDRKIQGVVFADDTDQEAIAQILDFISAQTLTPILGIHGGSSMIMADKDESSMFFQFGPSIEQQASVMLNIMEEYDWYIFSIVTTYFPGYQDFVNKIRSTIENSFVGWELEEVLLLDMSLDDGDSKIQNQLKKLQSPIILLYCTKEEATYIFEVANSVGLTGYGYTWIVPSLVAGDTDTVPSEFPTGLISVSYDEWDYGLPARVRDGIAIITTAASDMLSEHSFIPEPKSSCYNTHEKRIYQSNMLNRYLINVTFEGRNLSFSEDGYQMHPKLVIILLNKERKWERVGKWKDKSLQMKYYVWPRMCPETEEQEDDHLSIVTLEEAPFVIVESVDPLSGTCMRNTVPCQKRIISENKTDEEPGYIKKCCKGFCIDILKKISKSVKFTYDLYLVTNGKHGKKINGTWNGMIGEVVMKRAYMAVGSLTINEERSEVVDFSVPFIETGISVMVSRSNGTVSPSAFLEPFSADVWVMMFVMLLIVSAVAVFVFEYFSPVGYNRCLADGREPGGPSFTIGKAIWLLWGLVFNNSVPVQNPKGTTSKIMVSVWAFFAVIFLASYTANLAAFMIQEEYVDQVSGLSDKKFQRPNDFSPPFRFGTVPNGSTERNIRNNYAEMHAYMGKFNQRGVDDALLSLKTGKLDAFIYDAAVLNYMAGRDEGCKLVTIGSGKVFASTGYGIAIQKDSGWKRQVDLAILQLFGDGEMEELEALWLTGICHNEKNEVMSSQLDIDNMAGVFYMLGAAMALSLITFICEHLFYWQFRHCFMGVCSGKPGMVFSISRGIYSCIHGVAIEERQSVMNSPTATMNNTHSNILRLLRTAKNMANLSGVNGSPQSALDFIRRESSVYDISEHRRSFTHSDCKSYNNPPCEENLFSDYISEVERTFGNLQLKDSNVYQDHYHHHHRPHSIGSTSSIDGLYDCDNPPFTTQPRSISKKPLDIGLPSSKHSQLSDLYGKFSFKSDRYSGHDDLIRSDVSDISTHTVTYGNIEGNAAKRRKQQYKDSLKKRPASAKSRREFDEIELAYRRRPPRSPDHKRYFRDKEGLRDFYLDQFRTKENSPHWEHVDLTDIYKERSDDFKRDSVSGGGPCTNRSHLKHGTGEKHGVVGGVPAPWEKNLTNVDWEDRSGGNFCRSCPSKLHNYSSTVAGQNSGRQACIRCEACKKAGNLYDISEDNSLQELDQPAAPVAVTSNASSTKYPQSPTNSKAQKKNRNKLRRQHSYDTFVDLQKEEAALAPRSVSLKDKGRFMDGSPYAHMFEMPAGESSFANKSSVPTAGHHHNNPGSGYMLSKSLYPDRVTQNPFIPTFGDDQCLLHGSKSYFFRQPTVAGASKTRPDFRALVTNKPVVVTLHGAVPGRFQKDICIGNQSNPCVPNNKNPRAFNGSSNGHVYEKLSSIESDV
Text: as §1
cDNA clones encoding the NR1A, NR2A, NR2B, NR2C and NR2D rat NMDA receptor subtypes were provided by Dr. P. H. Seeburg (see, Moriyoshi et al., Nature (Lond.) 354:31-37 (1991); Kutsuwada et al., Nature (Lond.) 358:36-41 (1992) Monyer et al., Science (Washington, D.C.) 256:1217-1221 (1992); Ikeda et al., FEBS Lett. 313:34-38 (1992); Ishii et al., J. Biol. Chem. 268:2836-2843 (1993) for details of these clones or their mouse homologs). The clones were transformed into appropriate host bacteria and plasmid preparations were made with conventional DNA purification techniques. A sample of each clone was linearized by restriction enzyme digestion and cRNA was synthesized with T3 RNA polymerase. The CRNA was diluted to 400 ng/μl and stored in 1 μl aliquots at −80° C. until injection.
Mature female Xenopus laevis were anaesthetized (20-40 min) using 0.15% 3-aminobenzoic acid ethyl ester (MS-222) and 2-4 ovarian lobes were surgically removed. Oocytes at developmental stages IV-VI (Dumont, J. N., J. Morphol. 136:153-180 (1972)), were dissected from the ovary still surrounded by enveloping ovarian tissues. Follicle-enclosed oocytes were micro-injected with 1:1 mixtures of cRNA:NR1A+NR2A, 2B, 2C or 2D; injecting ˜2,5, or 20 ng of RNA encoding each receptor subunit. […]
as §3, §4

The target of another series is NR1A/NR2D NMDA receptor (Rattus norvegicus, UniProt P35439+Q62645). The series is described as follows: Electrophysiological assay, cloned NMDA receptor subunits expressed in Xenopus oocytes (1A/2D). Type of series: cell-based. The settings on record: read-out: Subunits (IC50 (μM)) 1A/2D, mean IC50, inhibition of NMDA-activated membrane current responses, glutamate 100 μM + glycine.
NR1A/NR2D NMDA receptor, sequence (Q62645 28-1323, other chains not shown): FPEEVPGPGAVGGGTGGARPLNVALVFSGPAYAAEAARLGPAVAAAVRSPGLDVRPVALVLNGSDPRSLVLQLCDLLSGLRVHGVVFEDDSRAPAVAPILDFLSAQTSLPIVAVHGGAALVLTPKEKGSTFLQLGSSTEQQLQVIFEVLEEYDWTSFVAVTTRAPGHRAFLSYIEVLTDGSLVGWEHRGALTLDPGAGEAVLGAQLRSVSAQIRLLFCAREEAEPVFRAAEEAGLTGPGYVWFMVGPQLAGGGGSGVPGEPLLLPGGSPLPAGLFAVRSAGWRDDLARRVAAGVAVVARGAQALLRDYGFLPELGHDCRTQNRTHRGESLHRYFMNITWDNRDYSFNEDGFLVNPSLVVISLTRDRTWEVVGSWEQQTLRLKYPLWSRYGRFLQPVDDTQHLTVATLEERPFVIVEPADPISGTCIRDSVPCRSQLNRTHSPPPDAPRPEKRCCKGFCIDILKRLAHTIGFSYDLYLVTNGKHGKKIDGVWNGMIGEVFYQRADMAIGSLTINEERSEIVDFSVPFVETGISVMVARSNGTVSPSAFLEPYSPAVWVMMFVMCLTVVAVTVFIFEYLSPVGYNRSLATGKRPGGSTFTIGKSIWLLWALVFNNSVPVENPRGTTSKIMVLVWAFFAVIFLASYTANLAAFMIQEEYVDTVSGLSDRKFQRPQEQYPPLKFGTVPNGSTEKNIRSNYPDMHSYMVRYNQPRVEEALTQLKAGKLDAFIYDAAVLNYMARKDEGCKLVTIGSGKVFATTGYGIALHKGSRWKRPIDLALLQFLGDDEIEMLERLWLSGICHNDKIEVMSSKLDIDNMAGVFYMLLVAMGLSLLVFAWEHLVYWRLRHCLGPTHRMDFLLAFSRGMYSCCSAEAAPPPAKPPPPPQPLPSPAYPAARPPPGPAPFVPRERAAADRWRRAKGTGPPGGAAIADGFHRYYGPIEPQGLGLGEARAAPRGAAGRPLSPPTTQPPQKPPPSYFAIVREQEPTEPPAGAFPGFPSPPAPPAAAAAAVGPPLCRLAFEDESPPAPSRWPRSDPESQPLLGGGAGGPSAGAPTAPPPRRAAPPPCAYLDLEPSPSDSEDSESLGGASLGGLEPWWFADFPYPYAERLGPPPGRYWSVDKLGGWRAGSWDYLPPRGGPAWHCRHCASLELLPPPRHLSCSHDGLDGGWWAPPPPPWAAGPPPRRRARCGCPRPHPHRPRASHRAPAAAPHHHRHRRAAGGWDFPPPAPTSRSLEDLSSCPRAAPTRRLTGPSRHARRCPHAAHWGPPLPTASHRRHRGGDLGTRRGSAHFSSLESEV
Text: as §1, §2, §3, §4

For the next series, the target named is NR1A/NR2C NMDA receptor (Rattus norvegicus, UniProt P35439+Q00961). The series can be described thus: Electrophysiological assay, cloned NMDA receptor subunits expressed in Xenopus oocytes (1A/2C). The format is cell-based. The conditions noted are these: read-out: Subunits (IC50 (μM)) 1A/2C, mean IC50, inhibition of NMDA-activated membrane current responses, glutamate 100 μM + glycine.
Text: as §1, §2, §3, §4

The mark [2] stands for this setting: mean IC50, inhibition of NMDA-activated membrane current responses, glutamate 100 μM + glycine, read-out: Subunits (IC50 (μM)) 1A/2B.

NR1A/NR2A NMDA receptor, sequence (Q00959 20-1464 limits assumed, other chains not shown): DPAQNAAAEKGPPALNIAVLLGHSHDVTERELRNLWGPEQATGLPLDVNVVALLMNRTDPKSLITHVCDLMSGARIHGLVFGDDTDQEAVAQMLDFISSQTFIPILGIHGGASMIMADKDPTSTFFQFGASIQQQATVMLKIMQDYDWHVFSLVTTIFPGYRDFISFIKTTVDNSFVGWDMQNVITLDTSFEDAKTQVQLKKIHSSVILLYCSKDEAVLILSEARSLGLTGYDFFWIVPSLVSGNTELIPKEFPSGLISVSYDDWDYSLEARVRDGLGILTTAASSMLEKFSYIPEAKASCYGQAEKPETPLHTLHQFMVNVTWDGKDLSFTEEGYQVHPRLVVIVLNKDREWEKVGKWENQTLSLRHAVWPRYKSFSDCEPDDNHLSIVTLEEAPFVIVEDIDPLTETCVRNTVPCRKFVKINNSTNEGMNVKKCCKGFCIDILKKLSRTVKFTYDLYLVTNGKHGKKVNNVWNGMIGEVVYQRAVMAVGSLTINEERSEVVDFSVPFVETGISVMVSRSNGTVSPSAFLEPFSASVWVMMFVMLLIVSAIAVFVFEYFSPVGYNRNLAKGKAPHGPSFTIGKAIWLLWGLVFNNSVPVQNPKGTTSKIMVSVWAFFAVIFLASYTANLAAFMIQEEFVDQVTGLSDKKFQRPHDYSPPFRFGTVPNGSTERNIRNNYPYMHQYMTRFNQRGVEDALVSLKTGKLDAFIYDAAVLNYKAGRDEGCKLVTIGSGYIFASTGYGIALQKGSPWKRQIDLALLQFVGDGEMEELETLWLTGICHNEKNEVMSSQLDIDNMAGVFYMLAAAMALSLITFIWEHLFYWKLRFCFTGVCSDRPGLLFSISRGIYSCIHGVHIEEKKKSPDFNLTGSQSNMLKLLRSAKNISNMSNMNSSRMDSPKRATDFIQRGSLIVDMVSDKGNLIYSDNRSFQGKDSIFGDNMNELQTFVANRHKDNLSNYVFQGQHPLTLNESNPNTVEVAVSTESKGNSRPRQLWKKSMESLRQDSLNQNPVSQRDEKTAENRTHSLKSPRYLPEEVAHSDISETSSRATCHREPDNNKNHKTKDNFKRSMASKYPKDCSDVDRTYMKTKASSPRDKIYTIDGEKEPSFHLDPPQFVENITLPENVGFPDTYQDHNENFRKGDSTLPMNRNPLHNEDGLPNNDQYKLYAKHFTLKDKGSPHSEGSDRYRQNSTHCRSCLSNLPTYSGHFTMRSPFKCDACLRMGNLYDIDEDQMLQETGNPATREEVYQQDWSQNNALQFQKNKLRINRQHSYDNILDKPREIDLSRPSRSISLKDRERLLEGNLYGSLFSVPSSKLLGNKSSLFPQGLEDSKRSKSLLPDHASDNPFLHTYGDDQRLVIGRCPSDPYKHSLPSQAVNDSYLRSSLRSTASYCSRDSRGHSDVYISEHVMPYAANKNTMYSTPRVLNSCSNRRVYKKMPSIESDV

For orientation: ED50 means the midpoint of the dose-response relation. For `Oc1ccc(C#CCCN2CCC(Cc3ccccc3)CC2)cc1` [Ex. 42, 4-[4-(4-Benzyl-piperidin-1-yl)-but-1-ynyl]-phenol], in series [1], the 50% effect level (ED50) was put at a dose of 2.5 mg/kg and the “activity against maximal electroshock (MES)” value (“activity” below) was “potent activity”.

For the compound `CNc1ccc(C#CCCN2CCC(Cc3ccccc3)CC2)cc1` [Ex. 54, {4-[4-(4-Benzyl-piperidin-1-yl)-but-1-ynyl]-phenyl}-methyl-amine], in series [1], the ED50 was determined as 6.5 mg/kg and the “activity” value is “potent activity”.

`Cc1ccc(CC2(O)CCN(CCC#Cc3ccc(N)cc3)CC2)cc1` [Ex. 77, 1-(1-(4-Aminophenyl)-1-butyn-4-yl)-4-hydroxy-4-(4-methylbenzyl)piperidine] displayed an ED50 in series [1] of 0.4 mg/kg.

Take `NCc1cccc(C#CCCN2CCC(Cc3ccccc3)CC2)c1` [Ex. 52, 3-[4-(4-Benzyl-piperidin-1-yl)-but-1-ynyl]-benzylamine]: on NR1A/NR2A NMDA receptor (mean IC50, inhibition of NMDA-activated membrane current responses, glutamate 100 μM + glycine, read-out: Subunits (IC50 (μM)) 1A/2A), the IC50 turned out to be 15 µM.

As for `Nc1cccc(C#CCCN2CCC(O)(c3ccc(Cl)cc3)CC2)c1` [Ex. 8, 1-[4-(3-Aminophenyl)-3-butynyl]-4-hydroxy-4-(4-chlorophenyl)piperidine], in series [1], it took a dose of 10 mg/kg to reach the 50% effect level (ED50) and the “activity” value was “potent activity”.

With `O=[N+]([O-])c1ccc(C#CCCN2CCC(Cc3ccccc3)CC2)cc1` [Ex. 40, 4-Benzyl-1-[4-(4-nitro-phenyl)-but-3-ynyl]-piperidine], the IC50 on NR1A/NR2B NMDA receptor (setting [2]) was determined as 5 µM.

Turning to `Nc1ccc(C#CCN2CCC(Cc3ccccc3)CC2)cc1` [Ex. 63, 4-[3-(4-Benzyl-piperidin-1-yl)-prop-1-ynyl]-phenylamine], on NR1A/NR2B NMDA receptor (setting [2]), the IC50 worked out at 12 µM.

Turning to `Nc1ccc(C#CCCN2CCC(Cc3ccccc3)CC2)cc1` [Ex. 30, 1-(4-(4-Aminophenyl)-3-butynyl)-4-benzylpiperidine], in series [1], the 50% effect level (ED50) was put at a dose of 1.8 mg/kg and the “activity” value is reported as “potent activity”.

Take `Nc1cccc(C#CCCN2CC=C(c3ccccc3)CC2)c1` [Ex. 14, 1-[4-(5-Aminophenyl)-3-butynyl]-4-phenyl-1,2,5,6-tetrahydropyridine]: the IC50 was more than 100 µM on NR1A/NR2D NMDA receptor; 30 µM on NR1A/NR2B NMDA receptor (read-out: Subunits (IC50 (μM)) 1A/2B, mean IC50, inhibition of NMDA-activated membrane current responses, glutamate 100 μM + glycine); 40 µM at NR1A/NR2A NMDA receptor (read-out: Subunits (IC50 (μM)) 1A/2A, mean IC50, inhibition of NMDA-activated membrane current responses, glutamate 100 μM + glycine); more than 100 µM on NR1A/NR2C NMDA receptor.

For the compound `C(#Cc1ccccc1)CCN1CCC(Cc2ccccc2)CC1` [Ex. 18, 4-Benzyl-1-(4-phenyl-3-butynyl)piperidine], in series [1], the 50% effect level (ED50) was put at a dose of 3.5 mg/kg and the “activity” value is listed as “potent activity”.

As for `Cc1ccc(CC2CCN(CCC#Cc3ccc(O)cc3)CC2)cc1` [Ex. 67, 4-{4-[4-(4-Methyl-benzyl)-piperidin-1-yl]-but-1-ynyl}-phenol], in series [1], the ED50 is 6 mg/kg and the “activity” value is listed as “potent activity”.

The compound `NS(=O)(=O)c1ccc(C#CCCN2CCC(Cc3ccccc3)CC2)cc1` [Ex. 59, 4-[4-(4-Benzyl-piperidin-1-yl)-but-1-ynyl]-benzenesulfonamide] had an ED50 in series [1] of more than 5 mg/kg.

Turning to `CC(=O)Nc1ccc(C#CCCN2CCC(Cc3ccccc3)CC2)cc1` [Ex. 53, N-{4-[4-(4-Benzyl-piperidin-1-yl)-but-1-ynyl]-phenyl}-acetamide], in series [1], the 50% effect level (ED50) was put at a dose of 8 mg/kg and the “activity” value is given as “potent activity”.

Consider `Cc1ccc(CC2CCN(CCC#Cc3ccc(N)cc3)CC2)cc1` [Ex. 39, 4-{4-[4-(4-Methyl-benzyl)-piperidin-1-yl]-but-1-ynyl}-phenylamine], for which, in series [1], the ED50 is 2.5 mg/kg and the “activity” value is on record as “potent activity”.

In general, melting point refers to the temperature, or range, at which the solid turns liquid. `CCCCNC(=N)Nc1cccc(C#CCCN2CCC(O)(c3ccc(Cl)cc3)CC2)c1` [Ex. 28, N-n-Butyl-N′-(3-(4-(4-(4-chlorophenyl)-4-hydroxy)piperidinyl)butynyl)phenylguanidine] returned a melting point of 98 to 100 °C. For the same compound, in series [1], the 50% effect level (ED50) was put at a dose of 10 mg/kg and the “activity” value was “potent activity”.
